Measurements published in patent US9585891B2 (MERCK PATENT GMBH, priority 2012, dated 2017).
pIC50: −log10 of the molar value.

How the values were obtained:
[1] = target: T1, Vanin-1 in SUIT-S2 cell line (Homo sapiens, UniProt O95497); experiment: Vanin-1 cell-based mechanistic assay (fluorescence intensity, Pantothenate-AMC substrate); conditions: 40000 cells per well, 2 hours incubation at 37° C., Pantothenate-AMC 30 μM, 30 min
T1 construct: endogenous in cells; host or cells: SUIT-S2 cell line (ATCC # CRL1596)
T1 sequence (O95497 22-491): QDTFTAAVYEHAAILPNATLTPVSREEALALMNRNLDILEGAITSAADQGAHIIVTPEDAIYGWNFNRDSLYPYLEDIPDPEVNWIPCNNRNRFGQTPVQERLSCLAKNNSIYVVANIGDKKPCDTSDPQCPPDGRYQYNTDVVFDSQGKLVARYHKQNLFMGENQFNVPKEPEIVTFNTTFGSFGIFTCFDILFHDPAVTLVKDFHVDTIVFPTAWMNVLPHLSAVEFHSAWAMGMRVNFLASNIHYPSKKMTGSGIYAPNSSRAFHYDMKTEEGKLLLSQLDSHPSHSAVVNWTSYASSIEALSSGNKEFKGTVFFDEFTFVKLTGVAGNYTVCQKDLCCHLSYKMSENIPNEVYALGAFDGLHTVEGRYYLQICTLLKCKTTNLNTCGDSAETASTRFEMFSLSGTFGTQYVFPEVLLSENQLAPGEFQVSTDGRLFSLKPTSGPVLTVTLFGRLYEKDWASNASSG
Protocol: Vanin-1 Cell-Based Mechanistic Assay:
The cellular activity of the examples is measured in 96-well format based on fluorescence intensity assay using SUIT-S2 cell line (ATCC # CRL1596).
Cells are cultured at 37° C. with 5% CO2 to 80-90% confluence and then washed once with phosphate-buffered saline (PBS). Adherent cells are detached with PBS-EDTA and once in suspension 40000 cells are dispensed in 90 μl of PBS in 96-well black plates with clear bottoms. Threefold serial dilutions of test compounds are made in DMSO and then solubilized in PBS, dilution range 1:30. Cells and serial diluted test compounds (final concentrations 10 μM to 4.6 nM) or controls (PBS/0.3% DMSO) are incubated for 2 hours at 37° C. with 5% CO2. The reaction is initiated by the addition of the fluorogenic substrate, Pantothenate-AMC, at a concentration of 30 μM. After 30 minutes of incubation at 30° C. with gentle agitation, fluorescence intensity is measured at λex=350 nm and λem=450 nm with a fluorescence reader (BMG PHERAstar reader or equivalent).

[2] = target: T2, Human recombinant Vanin-1 (VNN1) (Homo sapiens, UniProt O95497); experiment: Vanin-1 enzymatic assay (fluorescence intensity, Pantothenate-AMC substrate); type: biochemical; conditions: purified recombinant human Vanin-1 0.5 nM; 30 min preincubation at 30° C.; Pantothenate-AMC 30 μM, 60 min
T2 construct: purchased Sino Biological Inc. 11662-H08H
T2 sequence (O95497 22-491): T1 sequence (O95497 22-491)
Protocol: Human recombinant Vanin-1 (VNN1) was purchased from Sino Biological Inc. (Catalog Number: 11662-H08H).
Measurement of VNN1 inhibition is performed in 384-well format based on fluorescence intensity assay. Purified recombinant human Vanin-1 (0.5 nM) and threefold serial diluted compounds in 3% DMSO (range of concentrations from 30 μM to 1.524 nM) or controls (3.0% DMSO) are incubated for 30 minutes at 30° C. with gentle agitation in assay buffer containing 100 mM potassium Phosphate Buffer (KPi), pH 7.5, 0.001% Bovine Serum Albumin (BSA), 0.5 mM dithiothreitol (DTT) and 0.0025% Brij-35. The reaction is initiated by the addition of the fluorogenic substrate, Pantothenate-AMC, at a concentration of 30 μM. After 60 minutes of incubation at 30° C. with gentle agitation, fluorescence intensity is measured at λex=350 nm and λem=450 nm with a fluorescence reader (BMG PHERAstar reader or equivalent).

Compound | pIC50 [1] | pIC50 [2]
C=CC(=O)CCNC(=O)[C@H](O)C(C)(C)CO [Example 3, (R)-2,4-Dihydroxy-3,3-dimethyl-N-(3-oxo-pent-4-enyl)-butyramide] | 5.90 | 5.03
CC(=O)/C=C/CCNC(=O)[C@H](O)C(C)(C)CO [Example 5, (R)-2,4-Dihydroxy-3,3-dimethyl-N-((E)-5-oxo-hex-3-enyl)-butyramide] | 5.49 | 5.48
CC(C)(CO)[C@@H](O)C(=O)NCCC(=O)C(N)=O [Example 7, (R)—N-(3-Carbamoyl-3-oxo-propyl)-2,4-dihydroxy-3,3-dimethyl-butyramide] | 5.83 | 6.08
CC(C)(CO)[C@@H](O)C(=O)NCCC(=O)C(=O)NC1CC1 [Example 8, (R)—N-(3-Cyclopropylcarbamoyl-3-oxo-propyl)-2,4-dihydroxy-3,3-dimethyl-butyramide] | 5.45 | 5.77
CC(C)(CO)[C@@H](O)C(=O)NCCC(=O)C(=O)NCC1CCCCC1 [Example 11, (R)—N-[3-(Cyclohexylmethyl-carbamoyl)-3-oxo-propyl]-2,4-dihydroxy-3,3-dimethyl-butyramide] | 7.14 | 7.52
CC(C)(CO)[C@@H](O)C(=O)NCCC(=O)C(=O)NCc1ccc(C(=O)NCCc2ccc(Oc3ccccc3)cc2)cc1 [Example 32, 4-{[4-((R)-2,4-Dihydroxy-3,3-dimethyl-butrylamino)-2-oxo-butyrylamino]-methyl)-N-[2-(4-phenoxy-phenyl)-ethyl]-benzamide] | > 8.00 | > 8.00
CC(C)(CO)[C@@H](O)C(=O)NCCC(=O)C(=O)NCc1ccc(S(=O)(=O)N2CCCCC2)cc1 [Example 33, (R)-2,4-Dihydroxy-3,3-dimethyl-N-{3-oxo-3-[4-(piperidine-1-sulfonyl)-benzylcarbamoyl]-propyl}-butyramide] | > 8.00 | > 8.00
CC(C)(CO)[C@@H](O)C(=O)NCCC(=O)C(=O)NCc1ccc(OCCNS(C)(=O)=O)cc1 [Example 39, (R)-2,4-Dihydroxy-N-(3-[4-(2-methanesulfonylamino-ethoxy)-benzylcarbamoyl]-3-oxo-propyl)-3,3-dimethyl-butyramide] | > 8.00 | 7.70
CC(C)(CO)[C@@H](O)C(=O)NCCC(=O)C(=O)NCc1ccc(-c2ccc(C(=O)O)cc2)cc1 [Example 55, 4′-{[4-((R)-2,4-Dihydroxy-3,3-dimethyl-butyrylamino)-2-oxo-butyrylamino]-methyl}-biphenyl-4-carboxylic acid] | – | > 8.00
COC(=O)c1ccc(-c2ccc(CNC(=O)C(=O)CCNC(=O)[C@H](O)C(C)(C)CO)cc2)cc1 [Example 56, 4′-{[4-((R)-2,4-Dihydroxy-3,3-dimethyl-butyrylamino)-2-oxo-butyrylamino]-methyl}-biphenyl-4-carboxylic acid methyl ester] | – | 8.00
CC(C)(CO)[C@@H](O)C(=O)NCCN(CCOc1ccccc1)C(=O)CCl [Example 63, (R)—N-{2-[(2-Chloro-acetyl)-(2-phenoxy-ethyl)-amino]-ethyl}-2,4-dihydroxy-3,3-dimethyl-butyramide] | – | 5.45
CC(C)(CO)[C@@H](O)C(=O)NCCN(CCOc1ccc(S(C)(=O)=O)cc1)C(=O)CCl [Example 64, (R)—N-(2-{(2-Chloro-acetyl)-[2-(4-methanesulfonyl-phenoxy)-ethyl]-amino}-ethyl)-2,4-dihydroxy-3,3-dimethyl-butyramide] | – | 5.46
COC(=O)c1ccc(OCCN(CCNC(=O)[C@H](O)C(C)(C)CO)C(=O)CCl)cc1 [Example 65, 4-(2-{(2-Chloro-acetyl)-[2-((R)-2,4-dihydroxy-3,3-dimethyl-butyrylamino)-ethyl]-amino}-ethoxy)-benzoic acid methyl ester] | – | 5.40
CC(C)(CO)[C@@H](O)C(=O)NCCN(CCOc1ccc(Br)cc1)C(=O)CCl [Example 66] | – | 5.54

The remaining lines, values ahead:

pIC50 [1] | pIC50 [2] | Compound
5.92 | 5.70 | CC(C)(CO)[C@@H](O)C(=O)NCCC(=O)/C=C/Cc1ccccc1 [Example 4, (R)-2,4-Dihydroxy-3,3-dimethyl-N-((E)-3-oxo-6-phenyl-hex-4-enyl)-butyramide]
6.17 | 5.24 | CC(C)(CO)[C@@H](O)C(=O)NCC/C=C/C(=O)CCc1ccccc1 [Example 6]
7.52 | 7.40 | CC(C)(CO)[C@@H](O)C(=O)NCCC(=O)C(=O)NCc1ccccc1 [Example 9, (R)—N-(3-Benzylcarbamoyl-3-oxo-propyl)-2,4-dihydroxy-3,3-dimethyl-butyramide]
7.60 | 7.52 | CC(C)(CO)[C@@H](O)C(=O)NCCC(=O)C(=O)NCc1ccccc1F [Example 10, (R)—N-[3-(2-Fluoro-benzylcarbamoyl)-3-oxo-propyl]-2,4-dihydroxy-3,3-dimethyl-butyramide]
7.05 | 7.30 | CC(C)(CO)[C@@H](O)C(=O)NCCC(=O)C(=O)NCCc1cccs1 [Example 14, (R)-2,4-Dihydroxy-3,3-dimethyl-N-[3-oxo-3-(2-thiophen-2-yl-ethylcarbamoyl)-propyl]-butyramide]
6.85 | 7.30 | CC(C)(CO)[C@@H](O)C(=O)NCCC(=O)C(=O)NCc1cccc(OC(F)(F)F)c1 [Example 15, (R)-2,4-Dihydroxy-3,3-dimethyl-N-[3-oxo-3-(3-trifluoromethoxy-benzylcarbamoyl)-propyl]-butyramide]
7.70 | 7.52 | CC(C)(CO)[C@@H](O)C(=O)NCCC(=O)C(=O)NCc1ccc(F)cc1 [Example 17, (R)—N-[3-(4-Fluoro-benzylcarbamoyl)-3-oxo-propyl]-2,4-dihydroxy-3,3-dimethyl-butyramide]
7.30 | 7.52 | CC(C)(CO)[C@@H](O)C(=O)NCCC(=O)C(=O)NCc1cccc2ccccc12 [Example 19, (R)-2,4-Dihydroxy-3,3-dimethyl-N-{3-[(naphthalen-1-ylmethyl)-carbamoyl]-3-oxo-propyl}-butyramide]
7.52 | 7.22 | COc1cccc(CNC(=O)C(=O)CCNC(=O)[C@H](O)C(C)(C)CO)c1 [Example 22, (R)-2,4-Dihydroxy-N-[3-(3-methoxy-benzylcarbamoyl)-3-oxo-propyl]-3,3-dimethyl-butyramide]
7.30 | 7.15 | CC(C)(CO)[C@@H](O)C(=O)NCCC(=O)C(=O)NCc1ccccc1C(F)(F)F [Example 23, (R)-2,4-Dihydroxy-3,3-dimethyl-N-[3-oxo-3-(2-trifluoromethyl-benzylcarbamoyl)-propyl]-butyramide]
> 8.00 | 8.00 | CC(C)(CO)[C@@H](O)C(=O)NCCC(=O)C(=O)NCc1ccc(S(C)(=O)=O)cc1 [Example 24, (R)-2,4-Dihydroxy-N-[3-(4-methanesulfonyl-benzylcarbamoyl)-3-oxo-propyl]-3,3-dimethyl-butyramide]
6.59 | 6.42 | CC(C)(CO)[C@@H](O)C(=O)NCCC(=O)C(=O)NCc1cccc(OCCNS(C)(=O)=O)c1 [Example 26, (R)-2,4-Dihydroxy-N-{3-[3-(2-methanesulfonylamino-ethoxy)-benzylcarbamoyl]-3-oxo-propyl}-3,3-dimethyl-butyramide]
7.00 | 7.70 | CC(C)(CO)[C@@H](O)C(=O)NCCC(=O)C(=O)NCc1ccc(-c2ccccc2)cc1 [Example 28, (R)—N-{3-[(Biphenyl-4-ylmethyl)-carbamoyl]-3-oxo-propyl}-2,4-dihydroxy-3,3-dimethyl-butyramide]
8.00 | > 8.00 | CC(C)(CO)[C@@H](O)C(=O)NCCC(=O)C(=O)NCc1ccc(Br)cc1 [Example 31, (R)—N-[3-(4-Bromo-benzylcarbamoyl)-3-oxo-propyl]-2,4-dihydroxy-3,3-dimethyl-butyramide]
